Laboratory results published in US8581605B2 (priority 2006, dated 2013).

Type: biochemical
Settings: pH 7.4

Question: Which “single-channel conductance of the αHL channel” value does the source give for α-hemolysin [αHL] here?
Answer: ~900 pS
